According to ChEMBL document CHEMBL1201862, “PubChem BioAssay data set” (2004):
Activity calls are given as the source filed them.

Columns and labels:
[1] = ADAM10 inhibitors, peptide cleavage, dose response, biochemical, QFRET (AID 743254);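 further: ADAM10 enzyme with the DM2 quenched FRET peptide as substrate; EDANS fluorescence gain as the protease cuts the substrate; inhibitor potency against ADAM10 proteolytic activity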
[2] = target: Disintegrin and metalloproteinase domain-containing protein 17 (Homo sapiens, UniProt P78536); assay: ADAM17 protease inhibitors, dose response, counter-screen for ADAM10 exosite inhibitor project, biochemical, quenched FRET substrate (AID 743253)
Disintegrin and metalloproteinase domain-containing protein 17, sequence (P78536 whole entry, the tested form may be a part): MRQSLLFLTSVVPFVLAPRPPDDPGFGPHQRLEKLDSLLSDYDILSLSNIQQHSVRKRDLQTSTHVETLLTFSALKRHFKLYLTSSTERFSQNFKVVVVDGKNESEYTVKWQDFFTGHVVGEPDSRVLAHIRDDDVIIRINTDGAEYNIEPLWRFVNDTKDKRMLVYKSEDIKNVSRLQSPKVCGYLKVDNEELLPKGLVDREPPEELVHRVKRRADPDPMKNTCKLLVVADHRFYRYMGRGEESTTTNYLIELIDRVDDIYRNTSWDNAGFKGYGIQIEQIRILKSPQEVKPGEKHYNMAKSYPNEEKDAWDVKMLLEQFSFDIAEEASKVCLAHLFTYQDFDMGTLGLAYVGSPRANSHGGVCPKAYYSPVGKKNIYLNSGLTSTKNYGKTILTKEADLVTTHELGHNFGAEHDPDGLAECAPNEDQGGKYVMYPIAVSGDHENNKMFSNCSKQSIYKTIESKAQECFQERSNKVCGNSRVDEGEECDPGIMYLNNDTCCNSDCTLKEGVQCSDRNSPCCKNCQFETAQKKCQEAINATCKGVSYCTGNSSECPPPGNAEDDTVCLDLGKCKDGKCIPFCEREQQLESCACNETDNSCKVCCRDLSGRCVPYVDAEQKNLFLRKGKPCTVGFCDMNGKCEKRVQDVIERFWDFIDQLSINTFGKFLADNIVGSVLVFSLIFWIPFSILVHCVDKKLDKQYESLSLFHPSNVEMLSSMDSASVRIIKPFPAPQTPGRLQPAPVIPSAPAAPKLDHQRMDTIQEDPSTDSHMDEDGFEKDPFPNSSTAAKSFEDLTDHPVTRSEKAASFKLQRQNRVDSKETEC

Estrogen receptor beta = Estrogen receptor beta (Homo sapiens, UniProt Q92731);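 further: recombinant ER-beta bound to coactivator SRC1 peptide in presence of estradiol agonist; inhibitors block coactivator peptide binding and lower the FRET signal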
Estrogen receptor beta, sequence (Q92731 whole entry): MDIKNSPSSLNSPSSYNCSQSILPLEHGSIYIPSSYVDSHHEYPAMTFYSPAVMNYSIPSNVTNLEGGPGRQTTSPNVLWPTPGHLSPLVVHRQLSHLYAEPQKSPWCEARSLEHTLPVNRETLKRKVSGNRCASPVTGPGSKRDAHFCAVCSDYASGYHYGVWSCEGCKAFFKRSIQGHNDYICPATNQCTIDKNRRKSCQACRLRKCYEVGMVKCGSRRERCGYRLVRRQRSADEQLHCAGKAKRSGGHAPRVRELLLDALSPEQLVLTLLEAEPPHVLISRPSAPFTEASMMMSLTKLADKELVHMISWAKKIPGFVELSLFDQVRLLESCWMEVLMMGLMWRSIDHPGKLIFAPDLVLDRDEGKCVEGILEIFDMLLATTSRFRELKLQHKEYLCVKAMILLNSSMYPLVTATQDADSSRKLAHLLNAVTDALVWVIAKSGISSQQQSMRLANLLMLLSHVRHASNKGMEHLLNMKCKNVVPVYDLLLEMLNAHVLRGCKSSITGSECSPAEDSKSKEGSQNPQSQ

[3] = Late stage counterscreen for inhibitors of Trypanosoma brucei methionyl tRNA synthetase (MetRS): Luminescence-based cell-based high throughput dose response assay to identify compounds that are cytotoxic to Jurkat human T lymphocyte cells.; type: functional
[4] = inhibitors of clade B AD8 Env fusion, dose response, cell-based, cherry-pick (AID 652062); type: functional;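 further: luciferase signal from cell-cell fusion driven by HIV-1 clade B AD8 Env; potency is for inhibitors of fusion seen as a drop in luminescence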
[5] = inhibitors of HIV Env-driven cell fusion, dose response, cherry-pick (AID 652057); type: functional, cell-based
[6] = target: T1, Corticotropin-releasing factor receptor 2/Corticotropin-releasing factor-binding protein (Homo sapiens, UniProt P24387+Q13324); assay: activators of CRF receptor 2 with binding protein – uHTS hits, confirmation (AID 602473); type: functional; settings: read-out: EC50_Mean
T1 sequence (Q13324 whole entry): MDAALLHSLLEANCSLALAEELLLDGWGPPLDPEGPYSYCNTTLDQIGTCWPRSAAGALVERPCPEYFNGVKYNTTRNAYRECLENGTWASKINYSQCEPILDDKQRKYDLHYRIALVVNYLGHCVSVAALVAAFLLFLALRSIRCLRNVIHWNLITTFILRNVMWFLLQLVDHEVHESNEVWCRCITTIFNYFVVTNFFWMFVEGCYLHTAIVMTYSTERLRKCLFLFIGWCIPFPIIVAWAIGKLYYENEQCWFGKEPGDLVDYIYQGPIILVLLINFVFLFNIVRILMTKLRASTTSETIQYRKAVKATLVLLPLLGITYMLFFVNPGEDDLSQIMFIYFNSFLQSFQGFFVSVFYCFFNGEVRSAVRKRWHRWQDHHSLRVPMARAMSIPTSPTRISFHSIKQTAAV
T1 sequence (P24387 whole entry): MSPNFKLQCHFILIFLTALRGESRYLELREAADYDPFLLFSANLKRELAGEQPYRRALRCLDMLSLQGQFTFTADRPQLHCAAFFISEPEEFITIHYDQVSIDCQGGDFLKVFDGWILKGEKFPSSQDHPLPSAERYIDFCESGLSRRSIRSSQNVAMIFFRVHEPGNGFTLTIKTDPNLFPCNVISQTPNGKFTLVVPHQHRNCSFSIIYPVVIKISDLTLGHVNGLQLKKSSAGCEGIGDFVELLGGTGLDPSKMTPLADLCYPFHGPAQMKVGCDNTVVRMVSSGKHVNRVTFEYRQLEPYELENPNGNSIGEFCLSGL

[7] = LGR2 antagonists, dose response, cell-based, HEK293, CRE-luciferase reporter, cherry pick, set 2 (AID 743343); type: functional;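 further: transfected cells were stimulated with diluted bursicon conditioned medium after compound addition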
[8] = HEK293 cell cytotoxicity, dose response, cytotoxicity control, plate reader, cherry-picked samples (AID 743446); type: functional, cell-based
[9] = ZM109 Env clade C HIV-1 fusion inhibitors, dose response, HeLa effector, CEM target cells, luciferase, cherry-pick (AID 652058); type: functional, cell-based
[10] = CEM21 lymphoblast cell cytotoxicity, dose response, cytotoxicity control for viral fusion inhibitor project, CellTiter-Glo luminescence, cherry-picked (AID 652042); type: functional, cell-based;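 further: potency for signal decrease meaning cytotoxicity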
[11] = non-specific cell cytotoxicity, dose response, cytotoxicity control for PAX8 inhibitor project, plate reader, dry powder samples (AID 743021); type: functional, cell-based
[12] = MC4R antagonists, dose response, counter-screen for LGR2 antagonist project, cell-based, plate reader, cherry pick (AID 743444); type: functional;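 further: transfected HEK 293 cells stimulated with alpha-MSH peptide; potency of inhibitors of the alpha-MSH evoked signal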
HEK293 = assay: inhibitors of LMP1-driven NF-kB reporter, dose response, cell-based, HEK293, luciferase, cherry-pick (AID 588343); type: functional; settings: Homo sapiens
[13] = HepG2 cell cytotoxicity, dose response, cytotoxicity control, plate reader, cherry-pick, antagonist series (AID 743416); type: functional, cell-based
[14] = off-target signal loss in HeLa-CEM21 co-culture – HeLa F-luc CTL cells, cherry-picked, counter-screen for HIV-1 Env fusion inhibitor project, dose response (AID 652040); type: functional, cell-based;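 further: potency for signal decrease marking cytotoxic or nonspecific inhibition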
[15] = A549 cell cytotoxicity, dose response, cytotoxicity control, plate reader, cherry-pick, antagonist series (AID 743412); type: functional, cell-based
Paired box protein Pax-8 = Paired box protein Pax-8 (Homo sapiens, UniProt Q06710); assay: inhibitors of PAX8-driven TPO luciferase reporter, dose response, RMG-I cells, cherry-pick (AID 687027); type: functional, cell-based;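 further: luciferase reporter driven by Pax8 target thyroperoxidase promoter measured by SteadyGlo luminescence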
Paired box protein Pax-8, sequence (Q06710 whole entry): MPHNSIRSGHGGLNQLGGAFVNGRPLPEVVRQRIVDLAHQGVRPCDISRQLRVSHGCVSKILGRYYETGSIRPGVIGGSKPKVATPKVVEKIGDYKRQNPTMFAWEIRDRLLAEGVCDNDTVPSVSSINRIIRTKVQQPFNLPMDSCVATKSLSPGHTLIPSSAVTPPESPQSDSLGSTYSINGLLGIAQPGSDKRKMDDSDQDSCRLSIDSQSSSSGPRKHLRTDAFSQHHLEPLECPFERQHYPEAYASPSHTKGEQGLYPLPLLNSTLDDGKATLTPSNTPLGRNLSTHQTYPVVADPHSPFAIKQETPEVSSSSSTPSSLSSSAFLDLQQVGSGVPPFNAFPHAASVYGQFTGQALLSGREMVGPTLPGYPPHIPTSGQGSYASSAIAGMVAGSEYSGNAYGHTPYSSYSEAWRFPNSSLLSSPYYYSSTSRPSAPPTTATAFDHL

[16] = target: E3 ubiquitin-protein ligase Mdm2 (Homo sapiens, UniProt Q00987); assay: enhancers of MDM2-luciferase reporter signal, concentration-effect titration, project on inhibitors of MDM2 ubiquitin ligase, cellular assay, luminescent readout, 384-well plate format (AID 1394); type: functional;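 further: MDM2 E3 inhibitors raise luminescence so EC50 is for signal enhancement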
E3 ubiquitin-protein ligase Mdm2, sequence (Q00987 whole entry): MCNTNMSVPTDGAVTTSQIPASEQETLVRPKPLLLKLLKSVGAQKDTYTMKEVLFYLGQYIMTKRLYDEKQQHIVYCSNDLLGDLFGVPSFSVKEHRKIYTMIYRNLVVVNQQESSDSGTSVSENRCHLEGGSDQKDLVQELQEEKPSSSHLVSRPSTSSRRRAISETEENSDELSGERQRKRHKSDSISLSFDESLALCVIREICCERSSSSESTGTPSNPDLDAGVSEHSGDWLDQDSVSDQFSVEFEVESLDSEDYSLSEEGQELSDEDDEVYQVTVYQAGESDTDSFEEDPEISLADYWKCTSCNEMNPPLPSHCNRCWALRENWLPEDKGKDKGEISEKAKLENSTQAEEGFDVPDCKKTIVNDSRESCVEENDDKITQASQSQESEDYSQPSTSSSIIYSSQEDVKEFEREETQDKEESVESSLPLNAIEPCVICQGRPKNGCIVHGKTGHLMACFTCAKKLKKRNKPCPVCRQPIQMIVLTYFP

[17] = Counterscreen for inhibitors of Trypanosoma brucei methionyl tRNA synthetase (MetRS): Luminescence-based cell-based high throughput dose response assay to identify compounds that are cytotoxic to Jurkat human T lymphocyte cells.; type: functional
[18] = target: T2, Methionyl-tRNA synthetase, putative (Trypanosoma brucei brucei, UniProt Q38C91); type: functional, Trypanosoma brucei brucei strain 927/4 GUTat10.1
T2 sequence (Q38C91 whole entry): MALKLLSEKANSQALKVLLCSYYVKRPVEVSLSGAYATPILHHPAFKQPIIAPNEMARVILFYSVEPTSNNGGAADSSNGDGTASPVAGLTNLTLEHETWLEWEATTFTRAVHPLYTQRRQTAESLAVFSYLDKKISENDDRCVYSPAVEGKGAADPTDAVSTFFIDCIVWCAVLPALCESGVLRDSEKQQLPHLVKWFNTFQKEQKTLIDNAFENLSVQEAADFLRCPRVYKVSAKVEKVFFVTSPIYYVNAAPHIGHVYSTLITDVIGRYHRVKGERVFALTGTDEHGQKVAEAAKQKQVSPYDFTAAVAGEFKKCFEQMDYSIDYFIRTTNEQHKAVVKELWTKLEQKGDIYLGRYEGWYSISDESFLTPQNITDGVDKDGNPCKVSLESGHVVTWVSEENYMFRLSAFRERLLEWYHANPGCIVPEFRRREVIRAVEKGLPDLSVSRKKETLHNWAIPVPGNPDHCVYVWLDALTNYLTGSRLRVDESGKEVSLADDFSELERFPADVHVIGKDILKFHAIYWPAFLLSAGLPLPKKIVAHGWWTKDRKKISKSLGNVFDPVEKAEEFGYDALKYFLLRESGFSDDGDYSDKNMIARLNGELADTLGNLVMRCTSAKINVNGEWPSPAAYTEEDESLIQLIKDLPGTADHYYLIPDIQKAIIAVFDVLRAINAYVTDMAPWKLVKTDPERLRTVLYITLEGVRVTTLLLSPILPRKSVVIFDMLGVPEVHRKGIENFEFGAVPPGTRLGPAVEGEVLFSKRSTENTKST

[19] = target: T2, Methionyl-tRNA synthetase, putative; type: functional, Trypanosoma brucei brucei strain 927/4 GUTat10.1; remark: listed apart in the source
[20] = Luminescence Cell-Based Dose Confirmation HTS to Identify Inhibitors of Platelet Dense Granule Release. [Related pubchem assays: 1663 (Primary HTS), 1678 (Summary of Project)]; type: functional
[21] = target: Luciferin 4-monooxygenase (Photinus pyralis, UniProt P08659); assay: firefly luciferase enzyme inhibitors, dose response, biochemical, luminescence (AID 1891)
Luciferin 4-monooxygenase, sequence (P08659 whole entry): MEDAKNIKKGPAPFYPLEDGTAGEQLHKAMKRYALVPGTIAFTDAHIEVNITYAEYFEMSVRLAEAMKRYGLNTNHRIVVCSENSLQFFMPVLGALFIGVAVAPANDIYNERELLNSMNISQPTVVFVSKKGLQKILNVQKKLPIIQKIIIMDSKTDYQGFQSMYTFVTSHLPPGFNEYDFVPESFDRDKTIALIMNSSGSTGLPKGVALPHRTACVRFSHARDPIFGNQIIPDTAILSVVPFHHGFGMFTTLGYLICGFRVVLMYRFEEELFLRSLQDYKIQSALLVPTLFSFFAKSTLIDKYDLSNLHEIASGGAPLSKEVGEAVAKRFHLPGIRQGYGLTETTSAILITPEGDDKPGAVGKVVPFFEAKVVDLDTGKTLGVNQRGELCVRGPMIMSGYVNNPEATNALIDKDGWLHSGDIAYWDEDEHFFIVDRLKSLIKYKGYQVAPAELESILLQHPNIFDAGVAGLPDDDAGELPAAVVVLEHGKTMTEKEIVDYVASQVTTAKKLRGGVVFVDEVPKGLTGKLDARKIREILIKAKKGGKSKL

SMILES: CC(C)(C)c1ccc(-c2nnc(SCC(=O)Nc3ccc(S(=O)(=O)Nc4nccs4)cc3)n2-c2ccc(Cl)cc2)cc1
- IC50 [1]: 10.6 µM (inactive)
- IC50 [2]: > 69.5 µM (inactive)

SMILES: CCCCn1c(SCc2nc(N)nc(Nc3ccccc3C)n2)nc2ccccc2c1=O
- IC50 [1]: > 69.5 µM (inactive)
- IC50 [2]: > 69.5 µM (inactive)

SMILES: O=C(OCC(=O)N1CCCC1)c1cncc(Br)c1
- IC50 (Estrogen receptor beta): > 50 µM (not active)

SMILES: CC(C)(C)[C@@H]1C=C(C(=O)NCc2nc3ccccc3[nH]2)O[C@H](OCc2ccc(CO)cc2)C1
- IC50 [3]: > 83.3 µM (inactive)

SMILES: C(=Cc1cnc2ccccc2n1)c1ccc2c(c1)OCO2
- AC50 [4]: 3.91 µM (active)
- AC50 [5]: 2.05 µM (active)
- EC50 [6]: > 53 µM (inactive)
- AC50 [7]: 0.263 µM (active)
- AC50 [8]: 17 µM (active)
- AC50 [9]: 13.5 µM (active)
- AC50 [10]: 42.1 µM (active)
- AC50 [11]: 6.27 µM (active)
- AC50 [12]: 0.25 µM (active)
- AC50 (HEK293): 0.173 µM (active)
- AC50 [13]: 24.6 µM (active)
- AC50 [14]: 4.37 µM (active)
- AC50 [15]: 10.7 µM (active)
- AC50 (Paired box protein Pax-8): 2.92 µM (active)

SMILES: COc1ccc2[nH]c3c(N4CC(C)OC(C)C4)ncnc3c2c1 (centres undefined)
- EC50 [16]: 7.39 µM (not active)

SMILES: CC(C)CC(OC(=O)c1cccs1)C(=O)NCc1ccco1 (centres undefined)
- IC50 (Estrogen receptor beta): > 50 µM (not active)

SMILES: O=C(Cn1cnc2ccccc21)Nc1cccc([N+](=O)[O-])c1
- IC50 [17]: 83.1 µM (inactive)
- IC50 [3]: > 83.3 µM (inactive)
- IC50 [18]: 3.47 µM (active)
- IC50 [19]: 1.76 µM (active)

SMILES: COc1ccc2[nH]c3nc(SCC(=O)Nc4ccc5c(c4)OCO5)nnc3c2c1
- IC50 [17]: 24.5 µM (inactive)
- IC50 [3]: 36.6 µM (inactive)
- IC50 [18]: 1.33 µM (active)
- IC50 [19]: 0.489 µM (active)

SMILES: Cc1ccc(C(=S)NCS(=O)(=O)c2ccc(C)cc2)cc1
- IC50 [2]: 14.5 µM (inactive)

SMILES: O=C(Cc1ccc(-n2c(=O)c3ccccc3n(Cc3ccccc3Cl)c2=O)cc1)NCC1CCCO1 (centres undefined)
- EC50 [20]: > 112 µM (not active)
- EC50 [16]: 8.14 µM (not active)
- EC50 [21]: > 112 µM (not active)
